Experimental data taken from US11813306B2, “Cyclic tetramer compounds as proprotein convertase subtilisin/kexin type 9 (PCSK9) inhibitors for the treatment of metabolic disorders” (NOVARTIS AG, priority 2018, dated 2023).

Molecular target: human PCSK9 (Homo sapiens, UniProt Q8NBP7)
Test: PCSK9 ligand binding assay (TR-FRET): interference with binding of human PCSK9 to human LDLR
Conditions: for IC50: Human PCSK9 Alexa Fluor 647 / Human LDLR extracellular domain-Europium Kryptate; for Max % inhibition: efficacy (Amax), 100% = 1 uM unlabeled human PCSK9, 0% = DMSO
Method: Example 10: PCSK9 Ligand Binding Assay
The PCSK9 binding of the compounds of the disclosure were measured using a time resolved fluorescence resonance energy transfer (TR-FRET) assay. This time resolved fluorescence resonance energy transfer (TR-FRET) assay measures the ability of a compound of the present disclosure to interfere with the binding of human PCSK9 to human LDLR, providing measures of both potency (IC50) and efficacy (Amax).
Human PCSK9 Alexa Fluor 647
Human LDLR extracellular domain-Europium Kryptate
Proxi plate-low volume assay plate (PerkinElmer #6008280)
Greiner V-bottom (Greiner BioOne #781280)
Assay Buffer • 20 mM HEPES, pH 7.5 • 150 mM NaCl • 1 mM CaCl2 • 0.01% v/v Tween20 • 0.01% w/v BSA
A master compound plate was prepared in a Greiner V bottom plate by diluting compounds of the disclosure in dimethylsulfoxide to the correct concentration for the desired top concentration based on the desired final concentration: for a 30 uM final concentration the master plate concentration is 1.5 mM (68 uL DMSO+12 uL 10 mM of a compound of the disclosure), for a 10 uM final concentration the master plate concentration is 0.5 mM (76 uL DMSO+4 uL 10 mM of a compound of the disclosure), for a 3 uM final concentration the master plate concentration is 150 uM (69 uL DMSO+1 uL 10 mM of a compound of the disclosure). These solutions were pipetted into columns 1 and 11 of the compound plate. Threefold serial dilutions were generated in columns 2-10 and 12-20 of the compound plate by transferring 10 uL into 20 uL of DMSO. Columns 21 and 22 of the compound plate were negative controls containing DMSO alone.
An intermediate plate was generated in a Greiner V bottom plate by transferring 8 uL from each well of the master plate into a corresponding well containing 92 uL of assay buffer and mixing thoroughly.
A Proxi plate-low volume assay plate was used for the assay. To all wells of the plate was added 10 uL of 16 nM Human PCSK9 Alexa Fluor 647, followed by 5 uL from the intermediate plate. For the positive control wells in columns 23 and 24 of the plate, 5 uL of unlabeled human PCSK9 was added at 4 uM in assay buffer containing 8% DMSO. Following a 30 minute incubation, 5 uL of 4 nM Human LDLR extracellular domain-Europium Kryptate was added and the mixture was incubated for an additional 2 hours.
The TR-FRET signal was measured on an EnVision or PheraStar instrument with a 60 ms delay, 330 nm excitation and 665 nm emission (FRET), and 330 nm excitation and 615 nm (Europium). The FRET ratio (FRET/Europium) was used for calculations.
No inhibition (0%) was observed from the wells containing DMSO (Control) in columns 21 and 22 of the compound plate. Full inhibition (100%) was observed from the wells containing 1 uM human PCSK9 (Control) in columns 23 and 24 of the plate. Data is expressed as percent inhibition: (value—0%)/(100%-0%).

human PCSK9, sequence (Q8NBP7 153-692): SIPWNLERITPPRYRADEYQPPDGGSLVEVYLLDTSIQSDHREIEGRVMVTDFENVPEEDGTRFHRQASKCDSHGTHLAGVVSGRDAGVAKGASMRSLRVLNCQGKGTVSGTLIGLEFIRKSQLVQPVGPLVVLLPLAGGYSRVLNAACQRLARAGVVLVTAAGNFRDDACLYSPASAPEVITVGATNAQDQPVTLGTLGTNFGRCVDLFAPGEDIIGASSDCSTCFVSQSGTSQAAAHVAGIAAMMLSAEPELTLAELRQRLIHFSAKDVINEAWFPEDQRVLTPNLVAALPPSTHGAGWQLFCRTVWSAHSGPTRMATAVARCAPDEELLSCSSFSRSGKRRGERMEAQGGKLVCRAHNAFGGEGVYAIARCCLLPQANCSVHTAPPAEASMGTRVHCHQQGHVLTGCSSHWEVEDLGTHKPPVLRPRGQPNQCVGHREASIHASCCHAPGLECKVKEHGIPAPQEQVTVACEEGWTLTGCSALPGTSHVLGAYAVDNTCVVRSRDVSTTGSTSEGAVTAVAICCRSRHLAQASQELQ
human PCSK9, sequence (Q8NBP7 31-152 partner limits assumed): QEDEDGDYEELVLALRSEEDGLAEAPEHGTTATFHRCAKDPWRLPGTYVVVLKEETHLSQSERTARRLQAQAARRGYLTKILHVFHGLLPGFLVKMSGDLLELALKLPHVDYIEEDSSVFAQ

Row | IC50 | Max % inhibition | Compound
1 | 0.93 nM | 113.3% | COC[C@@H]1NC(=O)[C@H](C)N(Cc2c(F)cc(Cl)cc2Oc2ccc(-c3cnc(CNC(C)(C)C)n3C)cc2)C(=O)C[C@@H](C2CC(F)(F)C2)C(=O)N2CCC[C@@](Cc3ccc(Cl)cc3)(C2)N(C)C1=O [Compound 165, (3S,7S,10S,13R)-6-(2-(4-(2-((tert-butylamino)methyl)-1-methyl-1H-imidazol-5-yl)phenoxy)-4-chloro-6-fluorobenzyl)-13-(4-chlorobenzyl)-3-(3,3-difluorocyclobutyl)-10-(methoxymethyl)-7,12-dimethyl-1,6,9,12-tetraazabicyclo[11.3.1]heptadecane-2,5,8,11-tetraone]
2 | 0.33 nM | 115.5% | C[C@H]1C(=O)N[C@@H](CO)C(=O)N[C@@]2(Cc3ccc(Cl)cc3)CCCN(C2)C(=O)[C@H](C2CC(F)(F)C2)CC(=O)N1Cc1c(F)cc(Cl)cc1Oc1ccc(-c2cnc(CN(C)C)n2C)cc1 [Compound 161, (3S, 7S, 10S, 13R)-6-(4-chloro-2-(4-(2-((dimethylamino)methyl)-1-methyl-1H-imidazol-5-yl)phenoxy)-6-fluorobenzyl)-13-(4-chlorobenzyl)-3-(3,3-difluorocyclobutyl)-10-(hydroxymethyl)-7-methyl-1,6,9,12-tetraazabicyclo[11.3.1]heptadecane-2,5,8,11-tetraone]
3 | 0.97 nM | 119.8% | COC[C@@H]1NC(=O)[C@H](C)N(Cc2ncc(Cl)cc2Oc2ccc(-c3cnc(CN(C)C)n3C)cc2)C(=O)C[C@@H](CC(F)(F)F)C(=O)N2CCC[C@@](Cc3ccc(Cl)cc3)(C2)NC1=O [Compound 29, (3S, 7S, 10S, 13R)-6-((5-chloro-3-(4-(2-((dimethylamino)methyl)-1-methyl-1H-imidazol-5-yl)phenoxy)pyridin-2-yl)methyl)-13-(4-chlorobenzyl)-10-(methoxymethyl)-7-methyl-3-(2,2,2-trifluoroethyl)-1,6,9,12-tetraazabicyclo[11.3.1]heptadecane-2,5,8,11-tetraone]
4 | 0.847 nM | 112.5% | COC[C@@H]1NC(=O)[C@H](C)N(Cc2ccc(Cl)cc2Oc2ccc(-c3cnc(CN(C)C)n3C)cc2)C(=O)C[C@@H](CC(F)(F)F)C(=O)N2CCC[C@@](Cc3ccc(Cl)cc3)(C2)NC1=O [Compound 2, (3S, 7S, 10S, 13R)-6-(4-chloro-2-(4-(2-((dimethylamino)methyl)-1-methyl-1H-imidazol-5-yl)phenoxy)benzyl)-13-(4-chlorobenzyl)-10-(methoxymethyl)-7-methyl-3-(2,2,2-trifluoroethyl)-1,6,9,12-tetraazabicyclo[11.3.1]heptadecane-2,5,8,11-tetraone]
5 | 0.18 nM | 114.0% | COC[C@@H]1NC(=O)[C@H](C)N(Cc2c(F)cc(Cl)cc2Oc2ccc(-c3cnc(CNC(C)(C)C)n3C)cc2)C(=O)C[C@@H](CC(F)(F)F)C(=O)N2CCC[C@@](Cc3ccc(Cl)cc3)(C2)NC1=O [Compound 138, (3S, 7S, 10S, 13R)-6-(2-(4-(2-((tert-butylamino)methyl)-1-methyl-1H-imidazol-5-yl)phenoxy)-4-chloro-6-fluorobenzyl)-13-(4-chlorobenzyl)-10-(methoxymethyl)-7-methyl-3-(2,2,2-trifluoroethyl)-1,6,9,12-tetraazabicyclo[11.3.1]heptadecane-2,5,8,11-tetraone]

The next lines start with the compound.

Row | Compound | IC50 | Max % inhibition
6 | C[C@H]1C(=O)N[C@@H](CC(=O)O)C(=O)N(C)[C@H](Cc2ccc(Cl)cc2)CN(C)C(=O)[C@H](Cc2ccccc2)CC(=O)N1Cc1ccc(Cl)cc1Oc1ccc(-c2cnc(CN3CCCC3)n2C)cc1.Cl [Compound 135, 2-((2S, 5S, 8R, 12R)-12-benzyl-1-(4-chloro-2-(4-(1-methyl-2-(pyrrolidin-1-ylmethyl)-1H-imidazol-5-yl)phenoxy)benzyl)-8-(4-chlorobenzyl)-2,7,10-trimethyl-3,6,11,14-tetraoxo-1,4,7,10-tetraazacyclotetradecan-5-yl)acetic acid] | 631 nM | 91.3%
7 | C[C@H]1C(=O)N[C@@H](CO)C(=O)N[C@@]2(Cc3ccc(Cl)cc3)CCCN(C2)C(=O)[C@H](Cc2ccccc2)CC(=O)N1Cc1ccc(Cl)cc1Oc1ccc(-c2nnc(CN(C)C)n2C)cc1 [Compound 56, (3R, 7S, 10S, 13R)-3-benzyl-6-(4-chloro-2-(4-(5-((dimethylamino)methyl)-4-methyl-4H-1,2,4-triazol-3-yl)phenoxy)benzyl)-13-(4-chlorobenzyl)-10-(hydroxymethyl)-7-methyl-1,6,9,12-tetraazabicyclo[11.3.1]heptadecane-2,5,8,11-tetraone] | 0.425 nM | 101.7%
8 | COC[C@@H]1NC(=O)[C@H](C)N(Cc2c(F)cc(Cl)cc2Oc2ccc(-c3cnc(CN(C)C)n3C)cc2)C(=O)C[C@@H](Cc2ccccc2)C(=O)N2CCC[C@@](Cc3ccc(Cl)cc3)(C2)N(C)C1=O [Compound 159, (3R, 7S, 10S, 13R)-3-benzyl-6-(4-chloro-2-(4-(2-((dimethylamino)methyl)-1-methyl-1H-imidazol-5-yl)phenoxy)-6-fluorobenzyl)-13-(4-chlorobenzyl)-10-(methoxymethyl)-7,12-dimethyl-1,6,9,12-tetraazabicyclo[11.3.1]heptadecane-2,5,8,11-tetraone] | 1.25 nM | 114.0%
9 | CC[C@@H]1CC(=O)N(Cc2ccc(Cl)cc2Oc2ccc(-c3cnc(CN4CCCC4)n3C)cc2)[C@@H](C)C(=O)N[C@@H](CO)C(=O)N(C)[C@H](Cc2ccc(Cl)cc2)CNC1=O.Cl [Compound 124, (2S, 5S, 8R, 12R)-1-(4-chloro-2-(4-(1-methyl-2-(pyrrolidin-1-ylmethyl)-1H-imidazol-5-yl)phenoxy)benzyl)-8-(4-chlorobenzyl)-12-ethyl-5-(hydroxymethyl)-2,7-dimethyl-1,4,7,10-tetraazacyclotetradecane-3,6,11,14-tetraone] | 102 nM | 96.8%
10 | C[C@H]1C(=O)N[C@@H](CO)C(=O)N[C@@]2(Cc3ccc(Cl)cc3)CCCN(C2)C(=O)[C@H]([C@@H]2CCc3ccccc32)CC(=O)N1Cc1ccc(Oc2ccc(-c3cnc(CN(C)C)n3C)cc2)cc1F [Compound 123] | 346 nM | 84.4%
11 | COC[C@@H]1NC(=O)[C@H](C)N(Cc2ccc(Cl)cc2Oc2ccc(-c3cnc(CN4CCCC4)n3C)cc2)C(=O)C[C@@H](Cc2ccccc2)C(=O)NC[C@@H](Cc2ccc(Cl)cc2)N(C)C1=O.Cl [Compound 92, (2S, 5S, 8R, 12R)-12-benzyl-1-(4-chloro-2-(4-(1-methyl-2-(pyrrolidin-1-ylmethyl)-1H-imidazol-5-yl)phenoxy)benzyl)-8-(4-chlorobenzyl)-5-(methoxymethyl)-2,7-dimethyl-1,4,7,10-tetraazacyclotetradecane-3,6,11,14-tetraone] | 2.37 nM | 104.1%
12 | C[C@H]1C(=O)N[C@@H](CO)C(=O)N[C@@]2(Cc3ccc(Cl)cc3)CCCN(C2)C(=O)[C@H](Cc2ccccn2)CC(=O)N1Cc1ccc(Cl)cc1Oc1ccc(-c2cnc(CN3CCCC3)n2C)cc1 [Compound 1, (3R,7S,10S,13R)-6-(4-Chloro-2-(4-(1-methyl-2-(pyrrolidin-1-ylmethyl)-1H-imidazol-5-yl)phenoxy)benzyl)-13-(4-chlorobenzyl)-10-(hydroxymethyl)-7-methyl-3-(pyridin-2-ylmethyl)-1,6,9,12-tetraazabicyclo[11.3.1]heptadecane-2,5,8,11-tetraone] | 0.562 nM | 103.2%
